Data on 31 compounds can be found in ChEMBL document CHEMBL1201862, “PubChem BioAssay data set” (2004).

Assay [1] in a line: NIH-3T3 fibroblast cytotoxicity, dose response, cytotoxicity control, cell-based, fluorescence, Alamar Blue, secondary assay (AID 2327).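 Also: NIH-3T3 mouse fibroblasts cultured with fluconazole at 8 µg/mL.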 Format: functional. For orientation: Resazurin is reduced to fluorescent resorufin, in cell work by metabolically active cells.
The target of assay [2] is Cytochrome P450 3A4 (Homo sapiens, UniProt P08684).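 Also: CYP3A4 tested as one member of a cytochrome P450 panel screen.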
Assay [3] can be described thus: P. falciparum Dd2 growth inhibitors, dose response, SYBR Green, cherry-picked samples (AID 1159567). It is filed as functional, cell-based.
Assay [4] has as its target Cytochrome P450 2C19 (Homo sapiens, UniProt P33261). In words: Cytochrome panel assay with activity outcomes. Panel member name: p450-cyp2c19 Compounds with AC50 equal or less than 10 uM are considered active. It is filed as functional. The settings on record: read-out: AC50.
For assay [5], the target named is T1, Corticotropin-releasing factor receptor 2/Corticotropin-releasing factor-binding protein (Homo sapiens, UniProt P24387+Q13324).
T1 sequence (Q13324 whole entry): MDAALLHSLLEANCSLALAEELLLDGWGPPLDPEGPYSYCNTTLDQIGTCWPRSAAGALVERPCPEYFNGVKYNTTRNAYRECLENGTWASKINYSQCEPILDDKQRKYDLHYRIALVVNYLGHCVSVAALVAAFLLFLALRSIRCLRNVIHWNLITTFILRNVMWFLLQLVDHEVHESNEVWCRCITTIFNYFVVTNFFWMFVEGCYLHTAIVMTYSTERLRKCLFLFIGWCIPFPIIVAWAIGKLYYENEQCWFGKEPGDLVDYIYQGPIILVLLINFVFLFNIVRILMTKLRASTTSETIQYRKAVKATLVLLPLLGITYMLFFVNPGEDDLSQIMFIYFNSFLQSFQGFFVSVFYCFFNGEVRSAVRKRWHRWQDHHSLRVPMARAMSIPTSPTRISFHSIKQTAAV
T1 sequence (P24387 whole entry): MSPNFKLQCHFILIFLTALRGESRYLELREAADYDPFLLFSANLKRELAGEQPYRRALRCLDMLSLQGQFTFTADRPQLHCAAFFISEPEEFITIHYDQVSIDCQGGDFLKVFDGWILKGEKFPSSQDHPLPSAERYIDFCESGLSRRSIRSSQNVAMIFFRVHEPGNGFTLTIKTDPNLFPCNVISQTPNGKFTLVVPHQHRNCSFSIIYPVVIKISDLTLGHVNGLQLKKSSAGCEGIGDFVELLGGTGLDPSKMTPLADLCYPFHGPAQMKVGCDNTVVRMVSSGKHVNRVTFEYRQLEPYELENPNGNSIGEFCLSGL
In words: activators of CRF receptor 2 with binding protein – uHTS hits, confirmation (AID 602473). Format: functional. The settings on record: read-out: EC50_Mean.

Assay [6] concerns the target Cytochrome P450 2C9 (Homo sapiens, UniProt P11712).
Assay [7] can be described thus: luciferase reporter signal suppression in cells – H4 neuroglioma cells, luminescence, dose response (AID 1990). It is filed as functional, cell-based. A general note: A reporter such as luciferase makes a cellular process visible.
A short description of assay [8]: Luminescence Cell-Based Dose Response HTS to Identify Inhibitors of 5'UTR Stem-Loop Driven Prion Protein mRNA Translation in H4 Neuroglioblastoma Cells. [Related pubchem assays: 1827 (Project Summary), 1813 (Primary HTS)]. Format: functional.
In assay [9] the target is T2, Heat shock factor protein 1 (Mus musculus, UniProt P38532).
T2 sequence (P38532 whole entry): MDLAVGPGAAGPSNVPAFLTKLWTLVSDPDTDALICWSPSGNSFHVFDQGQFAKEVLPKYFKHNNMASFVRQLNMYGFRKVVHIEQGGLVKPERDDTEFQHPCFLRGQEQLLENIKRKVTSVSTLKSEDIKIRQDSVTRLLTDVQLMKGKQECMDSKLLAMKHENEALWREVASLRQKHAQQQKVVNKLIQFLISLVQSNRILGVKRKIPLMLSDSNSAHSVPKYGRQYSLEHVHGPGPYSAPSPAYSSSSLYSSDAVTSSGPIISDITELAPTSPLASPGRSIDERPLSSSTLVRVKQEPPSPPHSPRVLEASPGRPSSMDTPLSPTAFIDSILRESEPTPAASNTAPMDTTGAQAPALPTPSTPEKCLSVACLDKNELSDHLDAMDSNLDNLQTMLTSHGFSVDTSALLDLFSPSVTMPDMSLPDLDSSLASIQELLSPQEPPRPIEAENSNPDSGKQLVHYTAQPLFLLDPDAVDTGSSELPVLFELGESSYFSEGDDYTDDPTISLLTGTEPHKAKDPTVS
In words: decrease of HSF1-responsive luciferase luminescence – cell-based, NIH3T3, dose retest, confirmation (AID 2382).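 Also: NIH3T3 fibroblasts with HSF1-driven luciferase reporter stressed by proteasome inhibitor MG132; luminescence from HSF1-driven luciferase expression after 8 hours of MG132 stress.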 Format: functional.

The nature of assay [10]: alpha-synuclein stem-loop luciferase translation blockers – H4 neuroglioma cells, luminescence, confirmation (AID 1988). Format: functional, cell-based.
The test system of assay [11] is H9c2. In words: cells. Format: functional, cell-based. The following applies: Rattus norvegicus, H9c2, Myocardium.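 Also: confirmatory concentration-response retest of ultra-high-throughput screening hits for modulation of myocardial damage; cell death induced by hydrogen peroxide oxidative stress; compound pretreatment for 60 min then peroxide exposure for 2 h; potency is for protecting the cells against peroxide damage rather than for killing them.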
For assay [12], the target named is T3, Cytochrome P450 1A2 (Homo sapiens, UniProt P05177).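 Also: PubChem cytochrome P450 panel assay, CYP1A2 panel member.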
T3 sequence (P05177 whole entry): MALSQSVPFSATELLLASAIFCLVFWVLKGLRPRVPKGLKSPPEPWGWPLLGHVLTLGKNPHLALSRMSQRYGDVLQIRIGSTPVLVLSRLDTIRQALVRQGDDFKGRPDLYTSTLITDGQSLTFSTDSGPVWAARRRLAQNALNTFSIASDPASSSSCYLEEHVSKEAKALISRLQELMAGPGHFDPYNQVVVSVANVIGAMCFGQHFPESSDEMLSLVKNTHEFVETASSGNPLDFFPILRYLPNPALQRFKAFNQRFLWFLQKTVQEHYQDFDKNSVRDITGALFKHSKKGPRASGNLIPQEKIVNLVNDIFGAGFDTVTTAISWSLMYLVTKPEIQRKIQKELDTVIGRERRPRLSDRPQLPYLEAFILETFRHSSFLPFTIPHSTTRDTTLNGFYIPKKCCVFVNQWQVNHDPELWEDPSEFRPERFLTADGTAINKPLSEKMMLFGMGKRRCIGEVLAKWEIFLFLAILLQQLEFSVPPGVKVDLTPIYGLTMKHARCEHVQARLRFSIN

The test system of assay [13] is Streptococcus. In words: GAS UMAA2166 growth inhibition – luminescence, BacTiterGlo, counter-screen for streptokinase expression inhibitor project, dose response (AID 1915).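 Also: potency for reduction of bacterial viability or growth.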 It is filed as functional, organism-based. For orientation: The purpose of a counterscreen is to sort out artefacts and off-target activity.
The target of assay [14] is T4, Streptokinase A (Streptococcus pyogenes serotype M1, UniProt P10520).
T4 sequence (P10520 whole entry): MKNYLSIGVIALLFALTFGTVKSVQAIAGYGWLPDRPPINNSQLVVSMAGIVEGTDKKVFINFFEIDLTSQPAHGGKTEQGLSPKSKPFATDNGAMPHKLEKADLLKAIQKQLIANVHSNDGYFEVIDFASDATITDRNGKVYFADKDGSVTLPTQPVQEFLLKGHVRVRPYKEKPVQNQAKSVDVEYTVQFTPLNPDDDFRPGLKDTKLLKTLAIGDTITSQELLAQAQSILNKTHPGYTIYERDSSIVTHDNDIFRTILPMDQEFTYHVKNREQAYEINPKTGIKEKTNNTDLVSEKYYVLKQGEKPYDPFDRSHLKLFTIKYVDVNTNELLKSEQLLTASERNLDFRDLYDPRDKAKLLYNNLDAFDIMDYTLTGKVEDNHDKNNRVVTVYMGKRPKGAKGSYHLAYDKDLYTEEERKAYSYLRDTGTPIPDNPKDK
The assay is described as follows: viability-normalized secreted streptokinase activity reduction – plasminogen activation absorbance, OD405, dose response (AID 1914).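 Also: secreted streptokinase activity via plasminogen activation per viability signal from cell pellet.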 It is filed as functional, Streptococcus pyogenes M1 GAS.

Assay [15] deals with Streptococcus sp. 'group A'. The assay is described as follows: Streptococcus pyogenes SK(-)GAS viability under kanamycin – luminescence, BacTiterGlo, confirmation, counter-screen for streptokinase expression inhibitor project, dose response (AID 1900). It is filed as functional, organism-based.

Activity calls are given as the source filed them.

Sequence of Cytochrome P450 2C19 (P33261 whole entry): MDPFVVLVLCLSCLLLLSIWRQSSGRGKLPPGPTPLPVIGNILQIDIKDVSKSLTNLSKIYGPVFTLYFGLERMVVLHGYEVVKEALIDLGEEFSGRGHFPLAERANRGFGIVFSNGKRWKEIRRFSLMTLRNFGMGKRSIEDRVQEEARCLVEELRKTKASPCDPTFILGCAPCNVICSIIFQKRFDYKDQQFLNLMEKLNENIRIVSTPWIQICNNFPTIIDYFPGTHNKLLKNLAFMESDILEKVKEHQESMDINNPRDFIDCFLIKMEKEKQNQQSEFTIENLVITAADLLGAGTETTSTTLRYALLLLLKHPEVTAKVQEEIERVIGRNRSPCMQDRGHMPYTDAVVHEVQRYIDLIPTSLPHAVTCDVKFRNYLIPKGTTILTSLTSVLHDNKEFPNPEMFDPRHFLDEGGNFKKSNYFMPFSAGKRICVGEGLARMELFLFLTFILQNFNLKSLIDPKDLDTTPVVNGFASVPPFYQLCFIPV
Sequence of Cytochrome P450 3A4 (P08684 whole entry): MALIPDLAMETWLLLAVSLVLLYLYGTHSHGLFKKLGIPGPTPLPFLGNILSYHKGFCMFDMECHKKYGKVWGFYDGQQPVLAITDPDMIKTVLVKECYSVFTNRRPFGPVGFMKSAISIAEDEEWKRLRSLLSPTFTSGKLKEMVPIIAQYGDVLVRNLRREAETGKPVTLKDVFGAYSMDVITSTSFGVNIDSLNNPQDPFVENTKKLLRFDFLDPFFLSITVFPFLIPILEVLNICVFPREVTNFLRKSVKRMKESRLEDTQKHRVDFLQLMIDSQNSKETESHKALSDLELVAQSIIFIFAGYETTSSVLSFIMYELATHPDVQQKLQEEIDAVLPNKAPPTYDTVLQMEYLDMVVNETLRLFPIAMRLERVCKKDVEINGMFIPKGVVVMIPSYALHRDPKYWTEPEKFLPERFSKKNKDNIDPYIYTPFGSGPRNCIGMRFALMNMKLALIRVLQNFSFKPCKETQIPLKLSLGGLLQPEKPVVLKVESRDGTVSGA
Sequence of Cytochrome P450 2C9 (P11712 whole entry): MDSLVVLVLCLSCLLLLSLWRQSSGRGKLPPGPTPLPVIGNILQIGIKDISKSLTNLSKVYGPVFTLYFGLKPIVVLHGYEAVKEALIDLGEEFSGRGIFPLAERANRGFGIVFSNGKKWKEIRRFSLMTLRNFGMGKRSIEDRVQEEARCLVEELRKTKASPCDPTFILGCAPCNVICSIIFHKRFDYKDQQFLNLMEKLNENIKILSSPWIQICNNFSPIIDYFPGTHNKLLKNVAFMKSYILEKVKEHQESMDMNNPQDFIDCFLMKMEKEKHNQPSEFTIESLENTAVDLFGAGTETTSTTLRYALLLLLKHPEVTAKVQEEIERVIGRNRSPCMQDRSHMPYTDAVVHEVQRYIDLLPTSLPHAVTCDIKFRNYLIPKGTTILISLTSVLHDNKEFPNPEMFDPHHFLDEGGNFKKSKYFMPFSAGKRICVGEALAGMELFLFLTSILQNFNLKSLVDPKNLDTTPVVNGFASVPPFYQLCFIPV

For the compound `CC(=O)NC/C(C)=N\Nc1ccc([N+](=O)[O-])cc1`, the EC50 in [1] was 33.9 µM (active).

As usually defined, the AC50 is the midpoint of the concentration-response curve, whichever way the signal moves. For the compound `CO[C@H]1COC(=O)[C@@H](C)COC(=O)[C@@H](Cc2ccccc2)NC(=O)C/C=C\[C@H]1C`, the AC50 in assay [2] was 6.31 µM (inconclusive). Take `C[C@H](CO)N1C[C@H](C)[C@H](CN(C)C(=O)NC2CCCCC2)OCc2ccccc2-c2c(n(C)c3ccccc23)C1=O`: the AC50 in assay [3] was 5.57 µM (active). In the case of `O=C(Cn1cccc1)NC1CCCCCC1`, the AC50 was 17.8 µM (inconclusive) in assay [2] and 6.31 µM (inconclusive) in [4]. With `CCOC(=O)N1CCN(C(=O)c2cnc3ccc(S(=O)(=O)N(C)c4cccc(C)c4)cc3c2O)CC1`, in [5], the EC50 is 3.84 µM (active). Turning to `Cc1noc(C)c1S(=O)(=O)N(C)C[C@H]1OCc2ccccc2-c2c(n(C)c3ccccc23)C(=O)N([C@@H](C)CO)C[C@H]1C`, the AC50 in assay [3] is 4.65 µM (active). `Brc1ccc(/C=C/C=N/Nc2nc3ccccc3s2)cc1`: in [1], the EC50 is 89.4 µM (inconclusive). Besides, in assay [6], the AC50 was 7.08 µM (inconclusive).

For `C=CCSc1nnc(C)c(/C=C/Nc2ccc(Cl)cc2)n1`, the EC50 in assay [5] was 4.77 µM (active). For `CCOc1cc(CNc2ccc3c(c2)OCCO3)cc(Br)c1OC`, the EC50 in assay [7] is > 60 µM (inconclusive); in assay [8] it was 10.7 µM (active). For `CC1(C)CC(=O)C(CCC(=O)c2ccccc2)C(C)(C)N1` (stereo not given), the EC50 in assay [9] is reported as > 195 µM (not active). Moreover, the values for the AC50 in assay [2] and in [4] were 12.6 µM (inconclusive) and 28.2 µM (inconclusive), respectively. In the case of `COc1ccc(CNc2nc(-c3ccc(C(=O)N(C)C)cc3)nc3ccccc23)c(OC)c1`, the results for the AC50 in assay [2] and in assay [6] were 3.98 µM (inconclusive) and 1 µM (inconclusive), respectively. One may read the IC50 as the concentration at which inhibition is half-maximal. In the case of `COc1ccc(CC(=O)N/N=C(\C)c2ccccn2)cc1`, the EC50 in assay [10] was 9.41 µM (active); in [7], 10.9 µM (active); in [8], 9.61 µM (active). Further, the IC50 in assay [11] was > 79 µM (inactive). As for `CSc1n[nH]c(-c2sccc2OCc2ccc(C)cc2)n1`, the AC50 in [2] was 20 µM (inconclusive).

For `O=C1C2C3C=CC([C@@H]2C(=O)N1C1CCCCC1)[C@H]1C(=O)N(C2CCCCC2)C(=O)C31` (stereo not given in full), the AC50 in [2] was 3.55 µM (inconclusive); in assay [4], 17.8 µM (inconclusive); in assay [6], 6.31 µM (inconclusive). In the case of `CN(C)c1ccc(C(c2ccc(N(C)C)cc2)c2ccc([N+](=O)[O-])cc2)cc1`, the results for the AC50 in assay [12] and in assay [2] were 3.16 µM (inconclusive) and 2 µM (inconclusive), respectively.

On to `Oc1ncnc2sc3c(c12)CCC3`, for which, in [11], the IC50 is 23 µM (active). The same measure, in the same setting: with `CCOc1cc(/C=C/c2ccc3cccc([N+](=O)[O-])c3n2)ccc1OCC(=O)N(C)C` the figure was 10.7 µM (active). For `CCCCSc1nc(C)cc(C)c1S(=O)(=O)c1ccccc1C`, the values for the concentration at half-maximal activity (AC50) in assay [2] and in assay [6] were 28.2 µM (inconclusive) and 10 µM (inconclusive), respectively. For the compound `CN(C)c1oc(-c2ccccc2Cl)nc1C#N`, the EC50 in [10] was 33.3 µM (active); in [7], > 120 µM (not active); in assay [8], 19.6 µM (active). With `CCCn1c(=O)c2[nH]c(-c3ccccc3)nc2n(CCC)c1=O`, the results for the AC50 in assay [2], in [4] and in assay [6] were 2.51 µM (inconclusive), 10 µM (inconclusive) and 1.58 µM (inconclusive), respectively. Turning to `COc1ccc(CNC(=O)c2coc(=O)c3ccccc23)c(OC)c1`, the EC50 in assay [10], in assay [7] and in [8] was > 120 µM (not active) in each case. As for `O=C(N/N=C/c1ccco1)/C(=C/c1cccc([N+](=O)[O-])c1)NC(=O)c1ccccc1`, the AC50 in assay [2] was 1.12 µM (inconclusive); in assay [4], 1 µM (inconclusive). As to `CC(C)c1ccccc1NC(=O)COC(=O)c1c2c(nc3ccccc13)CCN(Cc1ccccc1)C2`, the IC50 in [11] was > 79 µM (inactive). In the case of `CC(C)n1c(=O)c2c(=O)cc(O)oc2c2ccccc21`, the EC50 is > 150 µM (not active) in assay [13], > 150 µM (not active) in assay [14] and 27.8 µM (active) in assay [15]. Besides, the AC50 in assay [2] is 2.51 µM (inconclusive); in [4] it was 10 µM (inconclusive). In the case of `COc1ccc(-c2oc3ncn(CCN4CCOCC4)c(=N)c3c2-c2ccc(OC)cc2)cc1`, the EC50 is 14.5 µM (active) in [10], 8.99 µM (active) in assay [7] and 19.6 µM (active) in [8]. In the case of `Cc1ccc(C)c(C(=O)Nc2cc(C)nn2-c2nc(C)cc(C)n2)c1`, the EC50 in assay [9] is on record as > 195 µM (not active). In addition, the IC50 in assay [11] is > 79 µM (inactive). Regarding `Cc1ccc(CS(=O)(=O)CCC(=O)NCc2ccccn2)cc1`, the AC50 in [2] was 31.6 µM (inconclusive). On the same count and under the same terms, with `Cc1ccc(CSC(=N)Nc2ccccc2)cc1C` the figure was 3.16 µM (inconclusive).

`CC(C)[C@@H](C(=O)N1CCCC1)N1C(=O)N2CCc3c([nH]c4ccccc34)[C@@]2(C)C1=O`: the EC50 in [10], in [7] and in [8] was > 120 µM (not active) each time. As for `COc1cc2c(cc1OC)CN(c1nc(-c3cccnc3)nc3ccccc13)CC2`, in [11], the IC50 was > 79 µM (inactive). With `COc1cc(/C=C(\C#N)C(=O)Nc2ccccc2)ccc1OCCN1CCOCC1`, the IC50 in assay [11] is > 79 µM (inactive).
